Experimental findings from paper PMC8036666, “Biological and Physico-Chemical Characteristics of Arginine-Rich Peptide Gemini Surfactants with Lysine and Cystine Spacers” (International Journal of Molecular Sciences, 2021) are described below.

Data set [1] can be described thus: Critical aggregation concentration by surface tension (Du Noüy ring, K100 tensiometer). Format: physicochemical. The following applies: unbuffered aqueous solution, 298 K. Put shortly:
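Surface tension measured versus lipopeptide concentration in unbuffered aqueous solution at 298 K by the Du Noüy ring method, accuracy 0.1 mN/m. Surface tension was plotted against log concentration. CAC was taken as the intersection of linear fits to data below and above the inflection point.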

In data set [2] the test system is human red blood cells (hRBCs). In words: Hemolysis assay. It counts as cell-based. The following applies: red cells of human, 1 h. The procedure, abridged:
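Fresh EDTA-treated human RBCs were PBS-washed and incubated at 4% (v/v) with compounds at 0.5–256 μg/mL for 1 h at 37 °C. Supernatant absorbance was read at 540 nm against PBS (0%) and 1% Triton X-100 (100%) controls. HC50 was calculated from triplicates.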

A further data set deals with HaCaT cells. It counts as cell-based, human. The following applies: 24 h. Put shortly: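 HaCaT cells exposed to serially diluted compounds for 24 h, medium-only controls. Cytotoxicity read as metabolic activity by colorimetric MTS-type CellTiter 96 AQueous One assay.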
Data set [3] relates to Acinetobacter baumannii ATCC BAA 1605. As to conditions: ATCC BAA 1605, 24 h.
Data set [4] deals with Enterococcus faecium ATCC 700221. As to conditions: ATCC 700221, 24 h.
Data set [5] has as its system Klebsiella aerogenes ATCC 13048. As to conditions: ATCC 13048, 24 h.
Data set [6] concerns Klebsiella pneumoniae ATCC 700603. The following applies: ATCC 700603, 24 h.
The test system of data set [7] is Pseudomonas aeruginosa ATCC 9027. As to conditions: ATCC 9027, 24 h.
Data set [8] concerns Staphylococcus aureus ATCC 25923. The following applies: ATCC 25923, 24 h.
The test system of another data set is C. albicans ATCC 10231. As to conditions: ATCC 10231, 24 h. The procedure, abridged: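 CLSI broth microdilution: bacteria at 5 × 10^5 CFU/mL in Mueller–Hinton broth for 18 h, yeasts at 2 × 10^3 CFU/mL in RPMI-1640 with 2% D-glucose for 24 h, both at 37 °C, with lipopeptides at 0.5–256 μg/mL. MIC read visually as lowest concentration inhibiting growth; triplicate.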

The subject of a further data set is C. glabrata ATCC 15126. As to conditions: ATCC 15126, 24 h. Put shortly: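 Bacterial inocula of 5 × 10^5 CFU/mL in Mueller–Hinton broth were incubated 18 h, and the yeast at 2 × 10^3 CFU/mL in RPMI-1640 with 2% D-glucose for 24 h, both at 37 °C.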

Molecules are shown by their SMILES. Converted amounts (≈) assume the structure as drawn. “And” between values parts separate entries of the source, which are not always exact repeats. Identical values can stand only once. Where a SMILES comes first, the peptide text is derived from it. Side-chain parts run from the residue outwards. The star is where a group is joined. Decanoyl = CCCCCCCCCC(=O)*; Octanoyl = CCCCCCCC(=O)* A value given as a limit tells only on which side of the number the result lay.

The HC50 is the concentration giving 50% haemolysis. Usually IC50 stands for the midpoint of a concentration-inhibition curve. `CCCCCCCC(=O)N[C@@H](Cc1ccccc1)C(=O)N[C@@H](CCCNC(=N)N)C(=O)N[C@@H](CCCNC(=N)N)C(=O)NCCCC[C@H](NC(=O)[C@H](CCCNC(=N)N)NC(=O)[C@H](CCCNC(=N)N)NC(=O)[C@H](Cc1ccccc1)NC(=O)CCCCCCC)C(N)=O` [Compound B5] (Octanoyl-FRRK([Arg-Arg-Phe-Octanoyl])-NH2): in data set [1], the CAC was 2.47 mM and 3247.9 μg/mL; the “Surface Tension at CAC” value is 39 mN/m. This compound also showed an HC50 in [2] of 181.38 ± 8.99 µg/mL. Moreover, in the data set on HaCaT cells, the IC50 is given as 169.13 ± 32.80 µg/mL (≈ 128 µM). For the same compound, the “MIC Acinetobacter baumannii ATCC BAA 1605” value in data set [3] is given as 32 µg/mL (≈ 24.3 µM). Also, the “MIC Enterococcus faecium ATCC 700221” value in data set [4] is listed as 4 µg/mL (≈ 3.04 µM). For the same compound, the “MIC Klebsiella aerogenes ATCC 13048” value in data set [5] was 256 (−/−) µg/mL. The “MIC Klebsiella pneumoniae ATCC 700603” value in data set [6] amounted to 128 µg/mL (≈ 97.2 µM). The “MIC Pseudomonas aeruginosa ATCC 9027” value in data set [7] was found to be 8 µg/mL (≈ 6.08 µM). For the same compound, the “MIC Staphylococcus aureus ATCC 25923” value in data set [8] stood at 2 µg/mL (≈ 1.52 µM). In addition, in the data set on C. albicans ATCC 10231, the “MIC C. albicans ATCC 10231” value is 16 µg/mL (≈ 12.2 µM). In the data set on C. glabrata ATCC 15126, the “MIC C. glabrata ATCC 15126” value is listed as 16 µg/mL (≈ 12.2 µM).

Regarding `CCCCCCCCCC(=O)N[C@@H](CCCNC(=N)N)C(=O)N[C@@H](CCCNC(=N)N)C(=O)NCCCC[C@H](NC(=O)[C@H](CCCNC(=N)N)NC(=O)[C@H](CCCNC(=N)N)NC(=O)CCCCCCCCC)C(N)=O` [Compound B2] (Decanoyl-Arg-Arg-Lys([Arg-Arg-Decanoyl])-NH2), in data set [1], the CAC is 3.69 mM and 3980.0 μg/mL; the “Surface Tension at CAC” value is 36 mN/m. In addition, in [2], the HC50 is >256 µg/mL. This compound also returned an IC50 in the data set with HaCaT cells of 150.03 ± 3.15 µg/mL (≈ 139 µM). The “MIC Acinetobacter baumannii ATCC BAA 1605” value in [3] is on record as 8 µg/mL (≈ 7.42 µM). For the same compound, in data set [4], the “MIC Enterococcus faecium ATCC 700221” value is 2 µg/mL (≈ 1.85 µM). For the same compound, the “MIC Klebsiella aerogenes ATCC 13048” value in data set [5] is 128 µg/mL (≈ 119 µM). In addition, in [6], the “MIC Klebsiella pneumoniae ATCC 700603” value is on record as 128 µg/mL (≈ 119 µM). Also, the “MIC Pseudomonas aeruginosa ATCC 9027” value in data set [7] was determined as 8 µg/mL (≈ 7.42 µM). Also, the “MIC Staphylococcus aureus ATCC 25923” value in data set [8] is reported as 1 µg/mL (≈ 0.927 µM). The “MIC C. albicans ATCC 10231” value against C. albicans ATCC 10231 is 8 µg/mL (≈ 7.42 µM). Moreover, the “MIC C. glabrata ATCC 15126” value against C. glabrata ATCC 15126 is 4 µg/mL (≈ 3.71 µM).
